Assay results from patent EP1650209A1, “Griseusin derivatives and their use as antitumor agents” (Oncotest GmbH, priority 2004, dated 2006).
≈ marks a conversion by molar mass, not a printed value.

Legend:
Format in all cases: cell-based, human
LXFS 538 = assay: Clonogenic assay, colony formation of tumor stem cells from xenografts; conditions: Lung, small cell, xenograft LXFS 538, colony formation
LXFA 526L = assay: Proliferation inhibition of cancer cells (propidium iodide fluorescence); conditions: Lung, non small cell, LXFA 526L cell line
Method: (§1) Using various human cancer cells in vitro, the concentrations of the test compounds (A, B, C, D, E, F), which inhibit the proliferation of cancer cells by 50% (IC50) and 70% (IC70) were determined. Specifically, each cell line of bladder cancer (BXF 1218L and T-24), glioblastoma (CNXF 498NL), colic cancer (HCT-116 and HT-29), gastric cancer (GXF 251 L), head and neck cancer (HNXF 536L), non small cell lung cancer (LXF 1121L, LXF 289L, LXF 526L, LXF 529L, LXF 629L and H-460), mammary cancer (MAXF 401NL, MCF-7, MDA-231 and MDA-468), melanoma (MEXF 276L, MEXF 394NL, MEXF 462NL, MEXF 514L and MEXF 520L), ovary cancer (OVXF 1619L, OVXF 899L and OVCAR-3), pancreatic cancer (PAXF 1657L and PANC-1), prostate cancer (22Rv1, DU-145, LNCaP and PC3M), pleuramesothelioma (PXF 1752L), renal cancer (RXF 1781 L, RXF 393NL, RXF 486L and RXF 944L), and uterine cancer (UXF 1138L) is added to a 96-well microtiter plate at a density of 3.6-11.2x10^3 cells per well in RPMI-1640 medium containing 10% fetal calf serum and 0.1% gentamicin and incubated for 24 hours. After 24 hours RPMI-1640 medium containing 10% fetal calf serum and 0.1% gentamicin, together with a test compound, is added thereto. Then, this plate is incubated at 37°C for 4 days in a humidified atmosphere of air containing 5% CO2. Thereafter, the cell culture medium with or without drug was replaced by 200 µl of an aqueous PI solution (7 µg/ml propidium iodide). Applying a freeze thaw cycle to permeabilize intact cell walls, staining of DNA was achieved, and the fluorescence of each well was measured using the Cy-tofluor 4000 microplate reader (excitation 530 nm, emission 620 nm), giving a direct relationship to the total cell number. Proliferation inhibition is expressed as test versus untreated control (T/C-value [%]). IC50 and IC70 values were determined by plotting compound concentration versus cell viability.

LXFA 629L = assay: as above; conditions: Lung, non small cell, LXFA 629L cell line
Method: as §1

PC3M = assay: as above; conditions: Prostate, PC3M cell line
Method: as §1

22Rv1 = assay: as above; conditions: Prostate, 22Rv1 cell line
Method: as §1

PAXF 1657L = assay: as above; conditions: Pancreas, PAXF 1657L cell line
Method: as §1

BXF 1218L = assay: as above; conditions: Bladder, BXF 1218L cell line
Method: as §1

MEXF 462NL = assay: as above; conditions: MEXF 462NL cell line
Method: as §1

DU-145 = assay: as above; conditions: Prostate, DU-145 cell line
Method: as §1

RXF 1781 L = assay: as above; conditions: Kidney, RXF 1781 L cell line
Method: as §1

LXFA 1121 L = assay: as above; conditions: Lung, non small cell, LXFA 1121 L cell line
Method: as §1

MEXF 514L = assay: as above; conditions: Melanoma, MEXF 514L cell line
Method: as §1

H-460 = assay: as above; conditions: Lung, non small cell, H-460 cell line
Method: as §1

LXFL 529L = assay: as above; conditions: LXFL 529L cell line
Method: as §1

- IC50 (LXFS 538): 0.307 µg/mL (≈ 0.767 µM)
- IC50 (LXFA 526L): 0.129 µg/mL (≈ 0.322 µM)
- IC50 (LXFA 629L): 0.234 µg/mL (≈ 0.585 µM)
- IC50 (PC3M): 0.402 µg/mL (≈ 1 µM)
- IC50 (22Rv1): 0.071 µg/mL (≈ 0.177 µM)
- IC50 (PAXF 1657L): 0.094 µg/mL (≈ 0.235 µM)
- IC50 (BXF 1218L): 0.056 µg/mL (≈ 0.14 µM)
- IC50 value (MEXF 462NL; 4 days): 0.086 µg/mL (≈ 0.215 µM)
- IC50 (MEXF 462NL; Melanoma): 0.086 µg/mL (≈ 0.215 µM)
- IC50 (DU-145): 0.251 µg/mL (≈ 0.627 µM)
- IC50 (RXF 1781 L): 0.407 µg/mL (≈ 1.02 µM)
- IC50 (LXFA 1121 L): 0.083 µg/mL (≈ 0.207 µM)
- IC50 (MEXF 514L): 0.087 µg/mL (≈ 0.217 µM)
- IC50 (H-460): 0.490 µg/mL (≈ 1.22 µM)
- IC50 value (LXFL 529L; 4 days): 1.068 µg/mL (≈ 2.67 µM)
- IC50 (LXFL 529L; Lung, non small cell): 1.068 µg/mL (≈ 2.67 µM)
SMILES: C[C@@H]1CC(=O)[C@@H](O)[C@]2(O1)O[C@@H]1CC(=O)O[C@@H]1C1=C2C(=O)c2c(O)cccc2C1=O [Compound B, 4'-dehydro-deacetylgriseusin A]
- IC70 (LXFS 538): 0.502 µg/mL (≈ 1.25 µM)
- IC70 (LXFA 526L): 0.206 µg/mL (≈ 0.515 µM)
- IC70 (LXFA 629L): 0.671 µg/mL (≈ 1.68 µM)
- IC70 (PC3M): 0.929 µg/mL (≈ 2.32 µM)
- IC70 (22Rv1): 0.139 µg/mL (≈ 0.347 µM)
- IC70 (PAXF 1657L): 0.179 µg/mL (≈ 0.447 µM)
- IC70 (BXF 1218L): 0.133 µg/mL (≈ 0.332 µM)
- IC70 (MEXF 462NL; Melanoma): 0.158 µg/mL (≈ 0.395 µM)
- IC70 (DU-145): 0.669 µg/mL (≈ 1.67 µM)
- IC70 (RXF 1781 L): 1.134 µg/mL (≈ 2.83 µM)
- IC70 (LXFA 1121 L): 0.147 µg/mL (≈ 0.367 µM)
- IC70 (MEXF 514L): 0.149 µg/mL (≈ 0.372 µM)
- IC70 (H-460): 1.042 µg/mL (≈ 2.6 µM)
- IC70 (LXFL 529L; Lung, non small cell): 1.814 µg/mL (≈ 4.53 µM)
